{"source": "paper PMC7125537", "about": "(Bioorganic & Medicinal Chemistry Letters, 2010)", "test_system": "DU-145 cells", "assay": "Migration assay", "assay_type": "cell-based, human"}
{"smiles": "NC(=S)N/N=C(/c1cccc(Br)c1)c1ccccc1F", "note": "[analog 1, 3-bromophenyl-2′-fluorophenyl thiosemicarbazone]", "values": [{"measurement": "inhibition of DU-145 cell migration (in words)", "value": "effective inhibitor of DU-145 cell invasion and migration"}]}
